Results published in article PMC4833300, “Identification of Trypanocidal Activity for Known Clinical Compounds Using a New Trypanosoma cruzi Hit-Discovery Screening Cascade” (PLoS Neglected Tropical Diseases, 2016).
Read-outs that look alike come from different tables or passages of the source.

Experiments:
[1] = tested on: Vero cells; test: Host cell toxicity read-out of the primary assay (Vero cell count); assay type: cell-based; conditions: for EC50: Chlorocebus sabaeus, Vero, read-out: pEC50 (Vero) (converted)
Description: (§1) The compounds tested were obtained from the NIH (Clinical Collection) and from SelleckChem (FDA-approved drug library). Compounds were dispensed into black 384-well assay plates (Corning) by acoustic dispensing (LabCyte ECHO). […] Potencies are reported as pEC50 (-LOG(EC50[M])).
(§2) For the primary intracellular assay the infection conditions were chosen so that no trypomastigote egress occurs during the compound incubation time. First, Vero cells were infected overnight with tissue culture derived T. cruzi trypomastigotes in T225 tissue culture flasks (MOI 5). Next, any remaining free trypomastigotes were washed away with serum free MEM and the infected Vero cells were harvested by trypsinisation. The infected Vero cells were then plated into 384-well plates containing the compounds to be tested, at 4000 cells per well in MEM media with 1% FCS. […] The plates were imaged on a Perkin Elmer Operetta high-content imaging system using a 20x objective. Images were analysed using the Columbus system (Perkin Elmer). The algorithm for the primary assay first identified the Vero nuclei followed by demarcation of the cytoplasm and identification of intracellular amastigotes. This algorithm reported mean number of parasites per Vero cell and total number of Vero cells. Data analysis was as described in [22]. […] Hits from the primary screen were selected based on the following criteria: T. cruzi activity (percent inhibition) > (median T. cruzi percent inhibition + 3 x robust Standard Deviation) and Vero activity (percent inhibition) < (median percent Vero inhibition + 3 x robust Standard Deviation).

[2] = tested on: intracellular T. cruzi amastigotes; test: Primary high-content intracellular T. cruzi amastigote assay; assay type: cell-based, Trypanosoma cruzi (Silvio X10/7 A1) in Vero cells; conditions: for EC50: Trypanosoma cruzi, read-out: pEC50 (cruzi) (converted)
Description: as §1, §2

[3] = tested on: intracellular T. cruzi; test: Rate-of-kill assay (static-cidal assay in timecourse format); assay type: cell-based, Trypanosoma cruzi (Silvio X10/7 A1) in Vero cells; conditions: Trypanosoma cruzi; -LOG(MCC[M]); minimum cidal concentration, lowest concentration clearing at least half as many Vero cells as Nifurtimox (50μM) within 96 h; read-out: pMCC (RoK) (converted)
Description: The rate-of-kill assay uses the same protocol as the static-cidal assay but plates are incubated for 24, 48, 72 and 96 hours prior to fixing. Percent infected data is plotted as a time-course for each compound at every concentration. The minimum cidal concentration (MCC) is defined as the lowest concentration of compound that clears at least half as many Vero cells of intracellular parasites as Nifurtimox (50μM) within the timeframe of the assay.
To obtain rate-of-kill information we carried out the static-cidal assay in timecourse format (Fig 4A), with timepoints taken every 24h.

[4] = tested on: intracellular T. cruzi; test: Static-cidal assay (percent infected Vero cells, 96 h); assay type: cell-based, Trypanosoma cruzi (Silvio X10/7 A1) in Vero cells; conditions: Trypanosoma cruzi, Vero; 96 h; 0% = starting level of infection, 100% = 50μM Nifurtimox at 96h; only from concentrations not toxic to the host cells; read-out: MAX PI (SC), Maximum Percent Inhibition in the static cidal assay
Description: The secondary static-cidal assay uses the same protocol as the standard assay with the following changes: infection is done at MOI 10, and infected Vero cells are incubated 88h at 37°C in presence of 5% CO2 prior to trypsinisation and plating. Four hours after plating a control plate (no compounds) was fixed with formaldehyde as described above. Compound containing plates were fixed after incubation for 96 hours. Compounds are run as ten point dose response curves in triplicate. The algorithm for the secondary assay was similar to the primary assay but reported percent infected Vero cells instead of the mean number of parasites.
To assess screening hits for their ability to be cytocidal rather than cytostatic or growth slowing we developed a medium throughput (400 compounds / batch) assay to predict cidality of compounds against intracellular T. cruzi. […] Instead we developed an algorithm that assesses whether a Vero cell is infected or not, and we used the percentage of infected cells as primary measurement for the static-cidal assay. In order to readily identify cidal compounds we normalised the raw data using the starting level of infection as 0% effect and the final level of infection in presence of 50μM Nifurtimox as 100% effect control.

[5] = hits of the bio-actives screen, 10-point dose-response, top concentration 50μM, 72h

Row | Compound | EC50 [1, 5] [µM] | EC50 [2, 5] [µM] | other results
1 | Nc1ncnc2c1ncn2[C@@H]1O[C@H](CO)C[C@H]1O [3'-deoxydenosine] | – | – | pEC50 (Vero) [1, 5]: 4.3; pEC50 (cruzi) [2, 5]: 5.6
2 | CCCCC(=O)O[C@H]1CC[C@H]2[C@@H]3CCc4cc(O)ccc4[C@H]3CC[C@]12C [17β-estradiol 17-valerate] | – | – | pEC50 (Vero) [1, 5]: 4.9; pEC50 (cruzi) [2, 5]: 5.0
3 | CC(C)(C)C(=O)OCOP(=O)(COCCn1cnc2c(N)ncnc21)OCOC(=O)C(C)(C)C [Adefovir Dipivoxil] | 15.8 | 6.31 | –
4 | CCC(C)(C)c1ccc(CC(C)CN2C[C@@H](C)O[C@@H](C)C2)cc1 (stereo partly shown) [Amorolfine] | 15.8 | 10 | –
5 | COC(=O)C1=C(C)NC(C)=C(C(=O)OC2CCCN(Cc3ccccc3)C2)C1c1cccc([N+](=O)[O-])c1 (stereo not shown) [Benidipine] | 10 | 2 | –
6 | CC(COc1ccccc1Cc1ccccc1)N1CCCCC1 (stereo not shown) [Benproperine] | 15.8 | 1.26 | –
7 | CN1CCN(c2nc3cc(C(F)(F)F)ccc3n3cccc23)CC1.O=C(O)/C=C\C(=O)O.O=C(O)/C=C\C(=O)O [CGS 12066B] | – | – | pEC50 (Vero) [1, 5]: 4.8; pEC50 (cruzi) [2, 5]: 5.5
8 | CCOc1nc2cccc(C(=O)OC(C)OC(=O)OC3CCCCC3)c2n1Cc1ccc(-c2ccccc2-c2nnn[nH]2)cc1 (stereo not shown) [Candesartan cilexetil] | 12.6 | 6.31 | –
9 | COC(=O)C1=C(C)NC(C)=C(C(=O)OCCN(C)Cc2ccccc2)C1c1cccc([N+](=O)[O-])c1 (stereo not shown) [Cardene] | 15.8 | 3.98 | –
10 | COc1ccccc1OCCNCC(O)COc1cccc2[nH]c3ccccc3c12 (stereo not shown) [Carvedilol] | 15.8 | 5.01 | –
11 | CN(C)CCCN1c2ccccc2Sc2ccc(Cl)cc21 [Chlorpromazine] | 10 | 3.98 | –
12 | CN(C)CC/C=C1/c2ccccc2Sc2ccc(Cl)cc21 [Chlorprothixene] | 15.8 | 3.16 | –
13 | COCCOC(=O)C1=C(C)NC(C)=C(C(=O)OC/C=C/c2ccccc2)C1c1cccc([N+](=O)[O-])c1 (stereo not shown) [Cilnidipine] | 15.8 | 1.26 | –
14 | Clc1ccccc1C(c1ccccc1)(c1ccccc1)n1ccnc1 [Clotrimazole] | – | – | MCC [3]: 2.51e-08 M; Emax [4]: 60%
15 | C#C[C@]1(O)CC[C@H]2[C@@H]3CCC4=Cc5oncc5C[C@]4(C)[C@H]3CC[C@@]21C [Danazol] | 15.8 | 3.98 | –
16 | CN(C)[C@@H](CCOc1cccc2ccccc12)c1ccccc1 [Dapoxetine] | 15.8 | 5.01 | –
17 | CCOC(=O)C1(c2ccccc2)CCN(CCC(C#N)(c2ccccc2)c2ccccc2)CC1 [Diphenoxylate] | – | – | EC50 ([1]; 72 h): 15.8 µM; EC50 ([2]; 72 h): 2.51 µM
18 | COc1cc2nc(N3CCN(C(=O)C4COc5ccccc5O4)CC3)nc(N)c2cc1OC (stereo not shown) [Doxazosin] | 15.8 | 5.01 | –
19 | CNCC[C@H](Oc1cccc2ccccc12)c1cccs1 [Duloxetine] | – | – | EC50 ([1]; 72 h): 15.8 µM; EC50 ([2]; 72 h): 6.31 µM
20 | C[C@]12C=CC(=O)N[C@@H]1CC[C@@H]1[C@@H]2CC[C@]2(C)[C@@H](C(=O)Nc3cc(C(F)(F)F)ccc3C(F)(F)F)CC[C@@H]12 [Dutasteride] | – | – | EC50 ([1]; 72 h): 15.8 µM; EC50 ([2]; 72 h): 15.8 µM
21 | Clc1ccc(COC(Cn2ccnc2)c2ccc(Cl)cc2Cl)cc1 (stereo not shown) [Econazole] | – | – | MCC [3]: 6.31e-08 M; Emax [4]: 63%
22 | C=C1[C@H](CO)[C@@H](O)C[C@@H]1n1cnc2c(=O)[nH]c(N)nc21 [Entecavir] | 15.8 | 3.98 | –
23 | CCOC(=O)c1cncn1[C@H](C)c1ccccc1 [Etomidate] | – | – | EC50 ([1]; 72 h): 50.1 µM; EC50 ([2]; 72 h): 5.01 µM

Row | Compound | EC50 [1, 5] [µM] | EC50 [2, 5] [µM] | other results
24 | CCOC(=O)C1=C(C)NC(C)=C(C(=O)OC)C1c1cccc(Cl)c1Cl (stereo not shown) [Felodipine] | 15.8 | 5.01 | –
25 | C[C@]12CC[C@@H]3c4ccc(O)cc4C[C@@H](CCCCCCCCC[S+]([O-])CCCC(F)(F)C(F)(F)F)[C@H]3[C@@H]1CC[C@@H]2O (stereo partly shown) [Fulvestrant] | 15.8 | 5.01 | –
26 | C=CCc1ccc(O)c(-c2ccc(O)c(CC=C)c2)c1 [Honokiol] | 7.94 | 2 | –
27 | CNC1CC(c2ccc(Cl)c(Cl)c2)c2ccccc21 (stereo not shown) [Indatraline] | – | – | EC50 ([1]; 72 h): 12.6 µM; EC50 ([2]; 72 h): 5.01 µM
28 | COc1ccc(CN2CCN(C(c3ccc(F)cc3)c3ccc(F)cc3)CC2)c(OC)c1OC [Lomerizine] | 15.8 | 3.98 | –
29 | Cc1ccc(NC(=O)c2ccc(CN3CCN(C)CC3)cc2)cc1Nc1nc(-c2cccnc2)cs1 [Masitinib] | 7.94 | 2 | –
30 | Cc1cccc(CN2CCN(C(c3ccccc3)c3ccc(Cl)cc3)CC2)c1 (stereo not shown) [Meclizine] | 20 | 5.01 | –
31 | CCCCC/C=C\C/C=C\C/C=C\C/C=C\CCCC(=O)Nc1ccc(O)cc1 [N-arachidonoylaminophenol] | – | – | pEC50 (Vero) [1, 5]: 4.8; pEC50 (cruzi) [2, 5]: 5.7
32 | COCCOC(=O)C1=C(C)NC(C)=C(C(=O)OC(C)C)C1c1cccc([N+](=O)[O-])c1 (stereo not shown) [Nimodipine] | 15.8 | 2 | –
33 | CCOC(=O)C1=C(C)NC(C)=C(C(=O)OC)C1c1cccc([N+](=O)[O-])c1 (stereo not shown) [Nitrendipine] | 15.8 | 3.98 | –
34 | NC(=O)N/N=C/c1ccc([N+](=O)[O-])o1 [Nitrofurazone] | 15.8 | 1 | –
35 | Fc1ccc([C@@H]2CCNC[C@H]2COc2ccc3c(c2)OCO3)cc1 [Paroxetine] | 12.6 | 5.01 | –
36 | O=C1[C@H]2CCCC[C@H]2C(=O)N1CCCCN1CCN(c2nsc3ccccc23)CC1 [Perospirone] | 15.8 | 6.31 | –
37 | c1ccc2c(c1)Nc1ccccc1S2 [Phenothiazine] | – | – | EC50 ([1]; 72 h): 15.8 µM; EC50 ([2]; 72 h): 2.51 µM
38 | COC(=O)[C@H]1[C@H]2C[C@@H]3c4[nH]c5cc(OC)ccc5c4CCN3C[C@H]2C[C@@H](OC(=O)c2cc(OC)c(OC)c(OC)c2)[C@@H]1OC [Reserpine] | 50.1 | 3.98 | –
39 | CO[C@H]1/C=C/O[C@@]2(C)Oc3c(C)c(O)c4c(O)c(c(/C=N/N5CCN(C6CCCC6)CC5)c(O)c4c3C2=O)NC(=O)/C(C)=C\C=C\[C@H](C)[C@H](O)[C@@H](C)[C@@H](O)[C@@H](C)[C@H](OC(C)=O)[C@@H]1C [Rifapentine] | 15.8 | 10 | –
40 | C[C@@H]1CN(CCCn2c3ccccc3c3ccccc32)C[C@H](C)N1 [Rimcazole] | 10 | 5.01 | –
41 | C=C(C)CN1CC[C@]23c4c5ccc(O)c4O[C@H]2c2[nH]c4ccccc4c2C[C@@]3(O)C1C5.Cl.O [SDM25N] | – | – | pEC50 (Vero) [1, 5]: 4.8; pEC50 (cruzi) [2, 5]: 5.2
42 | C[C@]12Cc3c[nH]nc3C[C@@H]1CC[C@@H]1[C@@H]2CC[C@@]2(C)[C@H]1CC[C@]2(C)O [Stanozolol] | – | – | EC50 ([1]; 72 h): 15.8 µM; EC50 ([2]; 72 h): 5.01 µM
43 | CN1CCN(CC/C=C2/c3ccccc3Sc3ccc(S(=O)(=O)N(C)C)cc32)CC1 [Thiothixene] | 7.94 | 5.01 | –
44 | Oc1cc(Cl)ccc1Oc1ccc(Cl)cc1Cl [Triclosan] | – | – | EC50 ([1]; 72 h): 10 µM; EC50 ([2]; 72 h): 7.94 µM
45 | C[C@@H](c1ncncc1F)[C@](O)(Cn1cncn1)c1ccc(F)cc1F [Voriconazole] | 50.1 | 0.0251 | Emax [4]: 70%
